Test results: patent publication US20090081170A1, “Cardiac progenitor cells” (priority 2007, published 2009)
Where a SMILES comes first, the peptide text is derived from it.

Tests used:
[1] = test system: Tβ4shNk embryo hearts at E14.5; experiment: AcSDKP intraperitoneal injection into pregnant females, rescue of Tβ4 knockdown embryo hearts; type: in vivo, mouse; conditions: E14.5 Tβ4shNk embryos
Source text: To investigate a role for Tβ4 during heart development and to provide insight into the mechanism by which the peptide mediates adult cardiac repair, we generated mouse embryos with heart-specific Tβ4 deficiency using a novel strategy of transgenic conditional RNA interference (RNAi; as described above). Floxed Tβ4 short hairpin RNA (Tβ4shRNAflox) mice were crossed with two strains of Cre-expressing mice: Nkx2-5^CreKI (designated Tβ4shNk), which directs Cre expression throughout the majority of cardiomyocytes, and MLC2vCreKI (designated Tβ4shMlc), which directs Cre expression specifically to ventricular cardiomyocytes. Tβ4shNk embryos were also observed to have thymic defects consistent not only with Cre expression driven by Nkx2-5 in the developing thymus, but also with the thymus representing an obvious source of Tβ4.
We next investigated whether AcSDKP could rescue any of the vasculogenesis defects observed in the Tβ4 mutant hearts. […] This supports our interpretation of the primary phenotype in Tβ4 mutants. AcSDKP lacks actin binding function, rendering it unable to stimulate filamentous actin assembly and lamellipodia-based cell migration and consequently unable to rescue the EPDC defect. […]

[2] = test system: adult heart explants (adult EPDCs); experiment: Adult epicardial explant culture: EPDC outgrowth and differentiation; type: cell-based, mouse
Procedure: A simple protocol for the outgrowth and differentiation of vasculogenic precursor cells (endothelial and vascular smooth muscle cells) from adult heart using Thymosin β4 to stimulate epicardial cell migration is described below.
• 1. Coat 6-well plates with gelatin: pipette 2 ml 0.1% gelatin solution, allow to stand for 15 minutes and aspirate. Optionally, place coverslips into wells, prior to gelatin coating. • 2. Cull adult mouse by cervical dislocation. • 3. Using sterile forceps and scissors make a lateral incision in the centre of the abdomen and tear back the fur to expose the rib cage. • 4. Carefully cut upwards through the sternum and along the diaphragm, taking care not to cut into the heart. Pull back the ribs to reveal the heart. • 5. Remove the heart using forceps and dissect away the atria and major vessels, to leave right and left ventricles. • 6. Place tissue in a 60 mm tissue culture dish (non gelatin coated) containing 2 ml DPBS. Cut into quarters and allow blood to rinse from the tissue. Carefully aspirate away DPBS. Using a sterile scalpel, cut the heart into pieces of approximately 1 mm^3. Reproducible EPDC outgrowth strongly depends upon the size of the heart pieces (optimally 1 mm^3). Larger pieces will not adhere to permit sufficient migration while smaller pieces tend to dissociate completely and cardiomyocyte death precedes adherence and EPDC outgrowth. • 7. Divide heart pieces into 4 equal portions (1 adult heart is typically divided between 4 wells for optimal EPDC outgrowth). • 8. Pipette 2 ml of EPDC culture medium, supplemented with 100 ng/ml Tβ4, into each well to be used. • 9. Place 1 portion of heart tissue into the centre of each well and ensure that all pieces are submerged. • 10. Gently transfer the plate to a humidified 5% CO2 37° C. incubator. Maintain cultures with minimum disturbance to allow explants to adhere. No feeding is required for the first 72 hours. Minimal disturbance is absolutely essential for EPDC outgrowth. Explants adhere only tenuously in the first instance and disturbance in the first few days of culture will prevent adhesion or lead to detachment. Plates should be transferred extremely cautiously between incubator and microscope or culture hood. After sufficient EPDCs have emerged, explants attach more firmly but care is still required as detachment may easily occur. • 11. After 72 hours in culture, carefully transfer plate to culture hood, wash explants gently with DPBS and add 2 ml fresh EPDC medium containing 100 ng/ml Tβ4. Leave for a further 24 hours before assessment of cellular phenotype.
• 1. Culture adult heart explants as described above. • 2. After 72 hours of culture, fix cells with 4% PFA for 10 minutes at room temperature. • 3. Wash cells twice with PBS. • 4. Permeabilise cells with 0.5% Triton X-100 in PBS for 5 minutes at room temperature. • 5. Wash cells twice with PBS. • 6. Block non-specific binding by incubating cells in BLOCK (1% BSA/10% sheep serum in PBS) for 1 hour at room temperature. • 7. Incubate cells with an appropriate dilution of primary antibody (epicardin, 1:100; SMalphaA, 1:700; Flk1, 1:100), or Procollagen type I, 1:100), in BLOCK. • 8. Wash cells 3 times using BLOCK. • 9. Incubate cells with the appropriate secondary antibody (epicardin: Cy3-conjugated anti-rabbit; SMalphaA: FITC-conjugated anti-mouse, 1:30; Procollagen type I: Alexa 488-conjugated anti-goat, 1:200; Flk1: Alexa 594-conjugated anti-rat, 1:200) diluted in BLOCK. • 10. Wash cells twice in PBS. • 11. Optionally, to stain nuclei, incubate with 5 ug/ml Hoechst in PBS for 5 minutes at room temperature. • 12. Wash cells twice in PBS. • 13. Mount coverslips onto microscope slides using 50% glycerol in PBS as mountant and visualize using a fluorescence microscope. […]

With `CC(=O)N[C@@H](CO)C(=O)N[C@@H](CC(=O)O)C(=O)N[C@@H](CCCCN)C(=O)N1CCC[C@H]1C(=O)O` [AcSDKP, N-acetyl-seryl-aspartyllysyl-proline] (Ac-SDKP-OH) the “rescue of the phenotype attributed to Tβ4 knockdown” value [1] was “failed to rescue any of the phenotype”, the “differentiated (Flk1-positive) endothelial cells” value ([2]; adult epicardial explants) was “striking increase” and the “smooth muscle cells in treated cultures” value ([2]; adult epicardial explants, data not shown) was “only very few smooth muscle cells observed”. For the same molecule, the “EPDC outgrowth from adult heart explants” value ([2]; adult mouse heart explants, 8-12 weeks, vs untreated explants) was “unable to promote epicardial outgrowth beyond control levels”.
